The source of these data is patent US20240254114A1, “PREPARATION OF FUSED AZOLE DERIVATIVES AS NOVEL DIACYLGLYCERIDE 0-ACYLTRANSFERASE 2 INHIBITORS” (Merck Sharp & Dohme LLC, priority 2022, published 2024).

In the first test the target is human DGAT2 (Homo sapiens (Human), UniProt Q96PD7). The test can be described thus: DGAT2 Enzymatic Activity Assay. To be noted: Human DGAT2 IC50, hDGAT2 membrane prep from Sf-9 cells; 13C18-triolein product by LC/MS/MS.
Chain of human DGAT2 (Q96PD7 whole entry): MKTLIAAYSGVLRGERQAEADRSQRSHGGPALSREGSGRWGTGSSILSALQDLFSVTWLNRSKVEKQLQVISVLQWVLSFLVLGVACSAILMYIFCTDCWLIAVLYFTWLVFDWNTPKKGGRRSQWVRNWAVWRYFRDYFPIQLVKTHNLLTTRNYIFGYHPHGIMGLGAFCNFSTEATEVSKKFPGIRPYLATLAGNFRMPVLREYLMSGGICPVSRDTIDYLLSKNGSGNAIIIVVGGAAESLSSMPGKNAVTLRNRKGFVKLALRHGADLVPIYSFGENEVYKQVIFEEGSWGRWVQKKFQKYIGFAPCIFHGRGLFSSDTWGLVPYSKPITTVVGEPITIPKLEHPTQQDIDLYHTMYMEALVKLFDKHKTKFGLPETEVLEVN
As for `Cn1c(C(=O)NC2(C)CCS(=O)(=O)CC2)nc2ccc(Oc3ncc(F)cc3OCC(F)(F)F)nc21` [Example 29, 5-((5-Fluoro-3-(2,2,2-trifluoroethoxy)pyridin-2-yl)oxy)-3-methyl-N-(4-methyl-1,1-dioxidotetrahydro-2H-thiopyran-4-yl)-3H-imidazo[4,5-b]pyridine-2-carboxamide], it took 12 nM to reach half-maximal inhibition (IC50).
Regarding `Cn1c(C(=O)NC2(C)CCS(=O)(=O)CC2)nc2ccc(Oc3ncc(F)cc3OCC(F)F)nc21` [Example 30, 5-((3-(2,2-Difluoroethoxy)-5-fluoropyridin-2-yl)oxy)-3-methyl-N-(4-methyl-1,1-dioxidotetrahydro-2H-thiopyran-4-yl)-3H-imidazo[4,5-b]pyridine-2-carboxamide], 1.4 nM corresponded to half-maximal inhibition (IC50).
On the same count and under the same terms, under `Cn1c(C(=O)NC2(C)CCS(=O)(=O)CC2)nc2cc(F)c(Oc3ncc(Cl)cc3OCC(F)F)nc21` [Example 41, 5-((5-chloro-3-(2,2-difluoroethoxy)pyridin-2-yl)oxy)-6-fluoro-3-methyl-N-(4-methyl-1,1-dioxidotetrahydro-2H-thiopyran-4-yl)-3H-imidazo[4,5-b]pyridine-2-carboxamide] stands 1.5 nM.
`Cn1c(C(=O)NC2(C)CCS(=O)(=O)CC2)nc2cc(Cl)c(Oc3ncc(Cl)cc3OCC(F)F)nc21` [Example 44, 6-chloro-5-((5-chloro-3-(2,2-difluoroethoxy)pyridin-2-yl)oxy)-3-methyl-N-(4-methyl-1,1-dioxidotetrahydro-2H-thiopyran-4-yl)-3H-imidazo[4,5-b]pyridine-2-carboxamide]: the IC50 (in general, the concentration that gives 50% inhibition) was determined as 86 nM.
The same measure, in the same setting: under `Cc1cc2nc(C(=O)NC3(C)CCS(=O)(=O)CC3)n(C)c2nc1Oc1ncc(Cl)cc1OCC(F)F` [Example 45, 5-((5-chloro-3-(2,2-difluoroethoxy)pyridin-2-yl)oxy)-3,6-dimethyl-N-(4-methyl-1,1-dioxidotetrahydro-2H-thiopyran-4-yl)-3H-imidazo[4,5-b]pyridine-2-carboxamide] stands 2.2 nM; under `Cc1cc(Oc2ncc(Cl)cc2OCC(F)F)nc2c1nc(C(=O)NC1(C)CCS(=O)(=O)CC1)n2C` [Example 49, 5-[[5-chloro-3-(2,2-difluoroethoxy)-2-pyridyl]oxy]-3,7-dimethyl-N-(4-methyl-1,1-dioxo-thian-4-yl)imidazo[4,5-b]pyridin-4-ium-2-carboxamide], 4.4 nM; under `CC1(NC(=O)c2nc3ccc(Oc4ncc(Cl)cc4OCC(F)F)nc3[nH]2)CCS(=O)(=O)CC1` [Example 50, 5-((5-chloro-3-(2,2-difluoroethoxy)pyridin-2-yl)oxy)-N-(4-methyl-1,1-dioxidotetrahydro-2H-thiopyran-4-yl)-3H-imidazo[4,5-b]pyridine-2-carboxamide], 15 nM.
On the same count and under the same terms, under `CC(C)n1c(C(=O)NC2(C)CCS(=O)(=O)CC2)nc2nc(Oc3ncc(Cl)cc3OCC(F)F)ccc21` [Example 51, 5-((5-chloro-3-(2,2-difluoroethoxy)pyridin-2-yl)oxy)-1-isopropyl-N-(4-methyl-1,1-dioxidotetrahydro-2H-thiopyran-4-yl)-1H-imidazo[4,5-b]pyridine-2-carboxamide] stands 533 nM.

Staying with this test, now noted: read-out: Human DGAT2 IC50; hDGAT2 membrane prep from Sf-9 cells; 13C18-triolein product by LC/MS/MS.
In the case of `Cn1c(C(=O)NC2(C)CCS(=O)(=O)CC2)nc2ccc(Oc3ncc(F)cc3OCC(C)(F)F)nc21` [Example 32, 5-[[3-(2,2-difluoropropoxy)-5-fluoro-2-pyridyl]oxy]-3-methyl-N-(4-methyl-1,1-dioxo-thian-4-yl)imidazo[4,5-b]pyridine-2-carboxamide], the IC50 is 236 nM.
The same measure, in the same setting: the same measure for `Cn1c(C(=O)NC2(C)CCS(=O)(=O)CC2)nc2ccc(Oc3ncccc3OCC(F)(F)F)nc21` [Example 34, 3-methyl-N-(4-methyl-1,1-dioxidotetrahydro-2H-thiopyran-4-yl)-5-((3-(2,2,2-trifluoroethoxy)pyridin-2-yl)oxy)-3H-imidazo[4,5-b]pyridine-2-carboxamide]: over 109 nM.
For the compound `Cn1c(C(=O)NC2(C)CS(=O)(=O)C2)nc2ccc(Oc3ncccc3OCC(F)(F)F)nc21` [Example 35, 3-methyl-N-(3-methyl-1,1-dioxidothietan-3-yl)-5-((3-(2,2,2-trifluoroethoxy)pyridin-2-yl)oxy)-3H-imidazo[4,5-b]pyridine-2-carboxamide], the 50% inhibitory concentration (IC50) is over 9990 nM.
On to `Cn1c(C(=O)NC2(C)CS(=O)(=O)C2)nc2ccc(Oc3ncc(F)cc3OCC(F)F)nc21` [Example 36, 5-[[3-(2,2-difluoroethoxy)-5-fluoro-2-pyridyl]oxy]-3-methyl-N-(3-methyl-1,1-dioxo-thietan-3-yl)imidazo[4,5-b]pyridine-2-carboxamide], for which the IC50 was found to be 42 nM.
The same measure, in the same setting: under `Cc1cnc(Oc2ccc3nc(C(=O)NC4(C)CCS(=O)(=O)CC4)n(C)c3n2)c(OCC(F)F)c1` [Example 37, 5-[[3-(2,2-difluoroethoxy)-5-methyl-2-pyridyl]oxy]-3-methyl-N-(4-methyl-1,1-dioxo-thian-4-yl)imidazo[4,5-b]pyridine-2-carboxamide] stands 29 nM.
In the case of `Cn1c(C(=O)NC2(C)CCS(=O)(=O)CC2)nc2ccc(Oc3nccnc3OCC(F)F)nc21` [Example 38, 5-[3-(2,2-difluoroethoxy)pyrazin-2-yl]oxy-3-methyl-N-(4-methyl-1,1-dioxo-thian-4-yl)imidazo[4,5-b]pyridine-2-carboxamide], the concentration for half-maximal inhibition (IC50) was determined as 20 nM.
Turning to `Cn1c(C(=O)NC2(C)CCS(=O)(=O)CC2)nc2cc(F)c(Oc3ncc(F)cc3OCC(F)(F)F)nc21` [Example 42, 6-fluoro-5-((5-fluoro-3-(2,2,2-trifluoroethoxy)pyridin-2-yl)oxy)-3-methyl-N-(4-methyl-1,1-dioxidotetrahydro-2H-thiopyran-4-yl)-3H-imidazo[4,5-b]pyridine-2-carboxamide], the IC50 came out at 2.2 nM.
Still for that read-out and setting: the same measure for `Cn1c(C(=O)NC2(C)CCS(=O)(=O)CC2)nc2cc(F)c(Oc3ncc(F)cc3OCC(C)(F)F)nc21` [Example 43, 5-[[3-(2,2-difluoropropoxy)-5-fluoro-2-pyridyl]oxy]-6-fluoro-3-methyl-N-(4-methyl-1,1-dioxo-thian-4-yl)imidazo[4,5-b]pyridine-2-carboxamide]: 34 nM; for `Cc1cc2nc(C(=O)NC3(C)CCS(=O)(=O)CC3)n(C)c2nc1Oc1ncc(F)cc1OCC(F)(F)F` [Example 46, 5-((5-fluoro-3-(2,2,2-trifluoroethoxy)pyridin-2-yl)oxy)-3,6-dimethyl-N-(4-methyl-1,1-dioxido-tetrahydro-2H-thiopyran-4-yl)-3H-imidazo[4,5-b]pyridine-2-carboxamide]: 6.3 nM; for `Cc1cc2nc(C(=O)NC3(C)CCS(=O)(=O)CC3)n(C)c2nc1Oc1ncc(F)cc1OCC(C)(F)F` [Example 47, 5-[[3-(2,2-difluoropropoxy)-5-fluoro-2-pyridyl]oxy]-3,6-dimethyl-N-(4-methyl-1,1-dioxo-thian-4-yl)imidazo[4,5-b]pyridine-2-carboxamide]: 79 nM.
On to `Cc1cc2nc(C(=O)NC3(C)CCS(=O)(=O)CC3)n(C)c2nc1Oc1ncc(F)cc1OCC(F)F` [Example 48, 5-[[3-(2,2-difluoroethoxy)-5-fluoro-2-pyridyl]oxy]-3,6-dimethyl-N-(4-methyl-1,1-dioxo-thian-4-yl)imidazo[4,5-b]pyridine-2-carboxamide], for which the concentration for half-maximal inhibition (IC50) turned out to be 6.3 nM.
